{"source": "patent US20040044008A1", "about": "“Use of therapeutic benzamide derivatives” (priority 2000, published 2004)"}
{"molecule": "N#Cc1cccc(CN2CCN(c3ccc(NC(=O)c4ccccc4OCCC4CCCCC4)cc3)CC2)c1", "note": "[Example 32, N-[4-[4-(3-Cyano-benzyl)-piperazin-1-yl]-phenyl]-2-(2-cyclohexyl-ethoxy)-benzamide]", "values": [{"measurement": "melting point", "result": "119 to 121", "unit": "°C"}]}
{"molecule": "COc1cccc(C(=O)Nc2ccc(N3CCN(Cc4cccc(C#N)c4)CC3)cc2)c1OCCCc1ccccc1", "note": "[Example 33, N-[4-[4-(3-Cyano-benzyl)-piperazin-1-yl]-phenyl]-3-methoxy-2-(3-phenyl-propoxy)-benzamide]", "values": [{"measurement": "melting point", "result": "134 to 136", "unit": "°C"}]}
{"molecule": "Cc1cccc(C(=O)Nc2ccc(N3CCN(CC(N)=O)CC3)cc2)c1-c1ccc(C(F)(F)F)cc1", "note": "[Example 40, 6-Methyl4′-trifluoromethyl-biphenyl-2-carboxylic acid [4-(4-carbamoylmethyl-piperazin-1-yl)-phenyl]-amide]", "values": [{"measurement": "melting point", "result": "196 to 198", "unit": "°C"}]}
{"molecule": "N#CCN1CCN(c2ccc(NC(=O)c3ccccc3-c3ccc(C(F)(F)F)cc3)cc2)CC1", "note": "[Example 41, 4′-Trifluoromethyl-biphenyl-2-carboxylic acid [4-(4-cyanomethyl-piperazin-1-yl]-phenyl]-amide]", "values": [{"measurement": "melting point", "result": "244 to 246", "unit": "°C"}]}
{"molecule": "CCOC(=O)CN1CCN(c2ccc(NC(=O)c3ccccc3-c3ccc(C(F)(F)F)cc3)cc2)CC1", "note": "[Example 42, 4′-Trifluoromethyl-biphenyl-2-carboxylic acid [4-(4-ethoxycarbonylmethyl-piperazin-1-yl)-phenyl]-amide]", "values": [{"measurement": "melting point", "result": "167 to 169", "unit": "°C"}]}
{"molecule": "CCOCCN1CCN(c2ccc(NC(=O)c3ccccc3-c3ccc(C(F)(F)F)cc3)cc2)CC1", "note": "[Example 43, 4′-Trifluoromethyl-biphenyl-2-carboxylic acid [4-(4-(2-ethoxy-ethyl)-piperazin-1-yl]-phenyl]-amide]", "values": [{"measurement": "melting point", "result": "176 to 178", "unit": "°C"}]}
{"molecule": "O=C(Nc1ccc(N2CCN(CCCO)CC2)cc1)c1ccccc1-c1ccc(C(F)(F)F)cc1", "note": "[Example 44, 4′-Trifluoromethyl-biphenyl-2-carboxylic acid [4-(4-(3-hydroxy-propyl)-piperazin-1-yl]-phenyl]-amide]", "values": [{"measurement": "melting point", "result": "208 to 210", "unit": "°C"}]}
{"molecule": "O=C(Nc1ccc(N2CCN(CCCC(F)(F)F)CC2)cc1)c1ccccc1-c1ccc(C(F)(F)F)cc1", "note": "[Example 45, 4′-Trifluoromethyl-biphenyl-2-carboxylic acid [4-(4-(4,4,4-trifluoro-butyl)-piperazin-1-yl]-phenyl]-amide]", "values": [{"measurement": "melting point", "result": "198 to 200", "unit": "°C"}]}
{"molecule": "CC(C)=CCN1CCN(c2ccc(NC(=O)c3ccccc3-c3ccc(C(F)(F)F)cc3)cc2)CC1", "note": "[Example 46, 4′-Trifluoromethyl-biphenyl-2-carboxylic acid [4-(4-(3-methyl-but-2-enyl)-piperazin-1-yl]-phenyl]-amide]", "values": [{"measurement": "melting point", "result": "203 to 205", "unit": "°C"}]}
{"molecule": "N#Cc1cc(CN2CCN(c3ccc(NC(=O)c4ccccc4-c4ccc(C(F)(F)F)cc4)cc3)CC2)ccc1F", "note": "[Example 47, 4′-Trifluoromethyl-biphenyl-2-carboxylic acid [4-(4-(3-cyano-4-fluoro-benzyl)-piperazin-1-yl)-phenyl]-amide]", "values": [{"measurement": "melting point", "result": "168 to 170", "unit": "°C"}]}
{"molecule": "O=C(Nc1ccc(N2CCN(Cc3ccc4c(c3)OCO4)CC2)cc1)c1ccccc1-c1ccc(C(F)(F)F)cc1", "note": "[Example 48, 4′-Trifluoromethyl-biphenyl-2-carboxylic acid [4-(4-(3,4-methylenedioxy-benzyl)-piperazin-1-yl)-phenyl]-amide]", "values": [{"measurement": "melting point", "result": "189 to 191", "unit": "°C"}]}
{"molecule": "O=C(Nc1ccc(N2CCN(Cc3cccc([N+](=O)[O-])c3)CC2)cc1)c1ccccc1-c1ccc(C(F)(F)F)cc1", "note": "[Example 49, 4′-Trifluoromethyl-biphenyl-2-carboxylic acid [4-(4-(3-nitro-benzyl)-piperazin-1-yl)-phenyl]-amide]", "values": [{"measurement": "melting point", "result": "152 to 154", "unit": "°C"}]}
{"molecule": "NC(=O)c1cccc(CN2CCN(c3ccc(NC(=O)c4ccccc4-c4ccc(C(F)(F)F)cc4)cc3)CC2)c1", "note": "[Example 50, 4′-Trifluoromethyl-biphenyl-2-carboxylic acid {4-[4-(3-carbamoyl-benzyl)-piperazin-1-yl]-phenyl}-amide]", "values": [{"measurement": "melting point", "result": "199 to 201", "unit": "°C"}]}
{"molecule": "O=C(Nc1ccc(N2CCN(Cc3ccc(F)cc3)CC2)cc1)c1ccccc1-c1ccc(C(F)(F)F)cc1", "note": "[Example 52, 4′-Trifluoromethyl-biphenyl-2-carboxylic acid [4-[4-(4-fluoro-benzyl)-piperazin-1-yl]-phenyl]-amide]", "values": [{"measurement": "melting point", "result": "198 to 200", "unit": "°C"}]}
{"molecule": "COC(=O)c1cccc(CN2CCN(c3ccc(NC(=O)c4ccccc4-c4ccc(C(F)(F)F)cc4)cc3)CC2)c1", "note": "[Example 55, 4′-Trifluoromethyl-biphenyl-2-carboxylic acid [4-[4-(3-carbomethoxy-benzyl)-piperazin-1-yl]-phenyl]-amide]", "values": [{"measurement": "melting point", "result": "190 to 192", "unit": "°C"}]}
{"molecule": "O=C(Nc1ccc(N2CCN(Cc3cnccn3)CC2)cc1)c1ccccc1-c1ccc(C(F)(F)F)cc1", "note": "[Example 58, 4′-Trifluoromethyl-biphenyl-2-carboxylic acid [4-(4-pyrazin-2-ylmethyl-piperazin-1-yl)-phenyl]-amide]", "values": [{"measurement": "melting point", "result": "183 to 185", "unit": "°C"}]}
{"molecule": "Cn1ccnc1CN1CCN(c2ccc(NC(=O)c3ccccc3-c3ccc(C(F)(F)F)cc3)cc2)CC1", "note": "[Example 60, 4′-Trifluoromethyl-biphenyl-2-carboxylic acid [4-[4-(1-methyl-1H-imidazol-2-ylmethyl)-piperazin-1-yl)-phenyl]-amide]", "values": [{"measurement": "melting point", "result": "118 to 120", "unit": "°C"}]}
{"molecule": "CCCN1CCN(c2ccc(NC(=O)c3ccccc3-c3ccc(C(F)(F)F)cc3)cc2)CC1", "note": "[Example 65, 4′-Trifluoromethyl-biphenyl-2-carboxylic acid [4-(4-propyl-piperazin-1-yl)-phenyl]-amide]", "values": [{"measurement": "melting point", "result": "207 to 209", "unit": "°C"}]}
{"molecule": "CC(=O)c1cccc(CN2CCN(c3ccc(NC(=O)c4ccccc4-c4ccc(C(F)(F)F)cc4)cc3)CC2)c1", "note": "[Example 66, 4′-Trifluoromethyl-biphenyl-2-carboxylic acid [4-(4-(3-acetyl-benzyl)-piperazin-1-yl)-phenyl]-amide]", "values": [{"measurement": "melting point", "result": "181 to 183", "unit": "°C"}]}
{"molecule": "O=C(Nc1ccc(N2CCN(Cc3ccco3)CC2)cc1)c1ccccc1-c1ccc(C(F)(F)F)cc1", "note": "[Example 67, 4′-Trifluoromethyl-biphenyl-2-carboxylic acid [4-(4-furan-2-ylmethyl-piperazin-1-yl)-phenyl]-amide]", "values": [{"measurement": "melting point", "result": "173 to 175", "unit": "°C"}]}
{"molecule": "COc1cccc(C(=O)Nc2ccc(N3CCN(Cc4ccc[nH]4)CC3)cc2)c1-c1ccc(C(C)C)cc1", "note": "[Example 68, 4′-Isopropyl-6-methoxy-biphenyl-2-carboxylic acid [4-(4-(1H-pyrrol-2-ylmethyl)-piperazin-1-yl)-phenyl]-amide]", "values": [{"measurement": "melting point", "result": "195 to 197", "unit": "°C"}]}
{"molecule": "O=C(Nc1ccc(N2CCN(Cc3cccs3)CC2)cc1)c1ccccc1-c1ccc(C(F)(F)F)cc1", "note": "[Example 70, 4′-Trifluoromethyl-biphenyl-2-carboxylic acid [4-(4-thiophen-2-ylmethyl-piperazin-1-yl)-phenyl]-amide]", "values": [{"measurement": "melting point", "result": "181 to 183", "unit": "°C"}]}
{"molecule": "O=C(Nc1ccc(N2CCN(Cc3cc[nH]n3)CC2)cc1)c1ccccc1-c1ccc(C(F)(F)F)cc1", "note": "[Example 71, 4′-Trifluoromethyl-biphenyl-2-carboxylic acid {4-[4-(1H-pyrazole-3-ylmethyl)-piperazine-1-yl)-phenyl}-amide]", "values": [{"measurement": "melting point", "result": "194 to 196", "unit": "°C"}]}
{"molecule": "O=C(Nc1ccc(N2CCN(Cc3ccsc3)CC2)cc1)c1ccccc1-c1ccc(C(F)(F)F)cc1", "note": "[Example 72, 4′-Trifluoromethyl-biphenyl-2-carboxylic acid [4-(4-thiophen-3-ylmethyl-piperazin-1-yl)-phenyl]-amide]", "values": [{"measurement": "melting point", "result": "187 to 189", "unit": "°C"}]}
